Reference: patent publication US12390486B2, “Method for treating diastolic heart failure by inhibiting galectin-3” (Henry Ford Health System, priority 2012, dated 2025)
Where “and” joins values, the source holds several entries; their conditions need not be identical. Equal entries are not always repeated.

Test system: dogs with microembolization-induced HF
Test: LacNAc in dogs with microembolization-induced HF (Example 2)
Type: in vivo, dog
Settings: for VFIF (LV Volume fraction of interstitial fibrosis) / ODD (Oxygen diffusion distance) / VFRF (LV volume fraction of replacement fibrosis) / MCSA (myocyte cross-sectional area) / Cap/mm^2 (Capillary density) / Cardiac Output / PE/PA / Ei/Ai / Stroke Volume / Left Ventricular Fractional Area of Shortening / Left Ventricular Ejection Fraction / Left Ventricular End-Systolic Volume / Left Ventricular End-Diastolic Volume / Diastolic Aortic Pressure / Mean Aortic Pressure / Heart Rate / Systolic Aortic Pressure / DT / Systemic Vascular Resistance: individual dogs and Mean (n=3); for VFIF (LV Volume fraction of interstitial fibrosis): historical controls mean 12.95; for ODD (Oxygen diffusion distance): historical controls mean 13.10; for VFRF (LV volume fraction of replacement fibrosis): historical controls mean 13.8; for MCSA (myocyte cross-sectional area): historical controls mean 575; for Cap/mm^2 (Capillary density): historical controls mean 2063; for Cardiac Output / PE/PA / Ei/Ai / Stroke Volume / Left Ventricular Fractional Area of Shortening / Left Ventricular Ejection Fraction / Left Ventricular End-Systolic Volume / Left Ventricular End-Diastolic Volume / Diastolic Aortic Pressure / Mean Aortic Pressure / Heart Rate / Systolic Aortic Pressure / DT / Systemic Vascular Resistance: 115 mg LacNAc oral daily, 12 weeks; for Cardiac Output: PRE mean 1.41; for PE/PA: PRE mean 1.80; for Ei/Ai: PRE mean 2.98; for Stroke Volume: PRE mean 17; for Left Ventricular Fractional Area of Shortening: PRE mean 28.3; for Left Ventricular Ejection Fraction: PRE mean 30; for Left Ventricular End-Systolic Volume: PRE mean 39; for Left Ventricular End-Diastolic Volume: PRE mean 56; for Diastolic Aortic Pressure: PRE mean 62; for Mean Aortic Pressure: PRE mean 73; for Heart Rate: PRE mean 84; for Systolic Aortic Pressure: PRE mean 87; for DT: PRE mean 131; for Systemic Vascular Resistance: PRE mean 4209
Description: In this dog model of HF, the development of the disease is associated with an increase in the volume fraction of interstitial fibrosis in the left ventricular wall from a normal level of 3.5% (connective tissue) to as high as 25%. Dogs were treated for 3 months with daily oral administration of 115 mg of LacNAc. […] This finding is similar to that observed with MCP (Example 1), as illustrated in FIG. 2. […] All of these findings support a marked improvement of LV function and cellular remodeling sought for treatment of HFpEF.

[1] = 115 mg LacNAc oral daily for 3 months, 3 dogs
[2] = 115 mg LacNAc oral daily for 3 months
[3] = 115 mg LacNAc oral daily for 3 months, mean

In the case of `CC(=O)N[C@H]1C(O)O[C@H](CO)[C@@H](O[C@@H]2O[C@H](CO)[C@H](O)[C@H](O)[C@H]2O)[C@@H]1O` (stereo partly drawn) [LacNAc, N-acetyl-D-lactosamine], the “LV ejection fraction” value [1] is reported as “improved LV ejection fraction”, the “LV relaxation (Ei/Ai, PE/PA and DT)” value [1] is reported as “improved LV relaxation” and the “capillary density” value [1] is reported as “increased capillary density”. The “myocyte hypertrophy” value [1] was “decreased myocyte hypertrophy”, the “oxygen diffusion” value [1] was “increased oxygen diffusion” and the “stroke volume and cardiac output” value [1] was “increased stroke volume and cardiac output”. The “reduction of reactive interstitial fibrosis” value (115 mg LacNAc oral daily for 3 months, 3 dogs, compared to historical untreated controls matched for LV ejection fraction, gender, duration of heart failure) was roughly 57%, the “VFIF (LV Volume fraction of interstitial fibrosis)” value [2] was 5.27% (2×) and 6.07% and the “VFIF (LV Volume fraction of interstitial fibrosis)” value [3] was 5.54%. For the same compound, the “ODD (Oxygen diffusion distance)” value [2] was 9.18 μm and 9.48 μm and 9.11 μm, the “ODD (Oxygen diffusion distance)” value [3] was 9.26 μm and the “VFRF (LV volume fraction of replacement fibrosis)” value [2] was 10.4% and 13.6% and 13.8%. For the same compound, the “VFRF (LV volume fraction of replacement fibrosis)” value [3] was 12.6%, the “MCSA (myocyte cross-sectional area)” value [2] was 373 μm^2 and 393 μm^2 and 418 μm^2 and the “MCSA (myocyte cross-sectional area)” value [3] was 395 μm^2. For the same compound, the “Cap/mm^2 (Capillary density)” value [2] was 2989 Cap/mm^2 and 2977 Cap/mm^2 and 3042 Cap/mm^2, the “Cap/mm^2 (Capillary density)” value [3] was 3002 Cap/mm^2 and the “Cardiac Output” value was 2.02 L/min and 1.80 L/min and 1.67 L/min. The “Cardiac Output” value (mean) was 1.83 L/min, the PE/PA was 1.82 and 2.52 and 1.84 and the PE/PA (mean) was 2.06. The Ei/Ai was 4.26 and 4.43 and 3.25, the Ei/Ai (mean) was 3.98 and the “Stroke Volume” value was 24 mL and 20 mL and 19 mL. The “Stroke Volume” value (mean) was 21 mL, the “Left Ventricular Fractional Area of Shortening” value was 31% and 41% and 29% and the “Left Ventricular Fractional Area of Shortening” value (mean) was 33.7%. The “Left Ventricular Ejection Fraction” value was 42% and 38% and 31%, the “Left Ventricular Ejection Fraction” value (mean) was 37% and the “Left Ventricular End-Systolic Volume” value was 33 ml (2×) and 43 ml. For the same compound, the “Left Ventricular End-Systolic Volume” value (mean) was 36 mL, the “Left Ventricular End-Diastolic Volume” value was 57 mL and 53 mL and 62 mL and the “Left Ventricular End-Diastolic Volume” value (mean) was 57 mL. The “Diastolic Aortic Pressure” value was 60 mmHg and 67 mmHg and 62 mmHg, the “Diastolic Aortic Pressure” value (mean) was 63 mmHg and the “Mean Aortic Pressure” value was 72 mmHg and 76 mmHg and 73 mmHg. For the same compound, the “Mean Aortic Pressure” value (mean) was 74 mmHg, the “Heart Rate” value was 84 beats/min and 90 beats/min and 88 beats/min and the “Heart Rate” value (mean) was 87 beats/min. For the same compound, the “Systolic Aortic Pressure” value was 88 mmHg (2×) and 90 mmHg, the “Systolic Aortic Pressure” value (mean) was 89 mmHg and the DT was 162 msec (2×) and 115 msec. The DT (mean) was 146 ms, the “Systemic Vascular Resistance” value was 2857 dynes-sec-cm^-5 and 3378 dynes-sec-cm^-5 and 3493 dynes-sec-cm^-5 and the “Systemic Vascular Resistance” value (mean) was 3243 dynes-sec-cm^-5.
